Test results: ChEMBL document CHEMBL3593199, “Guaianolides and a seco-Eudesmane from the Resinous Exudates of Cushion Bush (Leucophyta brownii) and Evaluation of Their Cytostatic and Anti-inflammatory Activity” (J Nat Prod, 2015)

Assays:
MCF7 = experiment: Cytostatic activity against human MCF7 cells incubated for 6 days by alamar blue reagent based resazurin metabolism assay; type: functional, cell-based; conditions: MCF7, 144 h
RAW264.7 [1] = experiment: Anti-inflammatory activity in mouse RAW264.7 cells assessed as inhibition of LPS-induced prostaglandin E2 production incubated for 48 hrs by ELISA method; type: functional, cell-based; conditions: RAW264.7, 48 h
RAW264.7 [2] = experiment: Anti-inflammatory activity in mouse RAW264.7 cells assessed as inhibition of LPS-induced thromboxane B2 production incubated for 48 hrs by ELISA method; type: functional, cell-based; conditions: RAW264.7, 48 h
HT-29 = experiment: Cytostatic activity against human HT-29 cells incubated for 72 hrs by alamar blue reagent based resazurin metabolism assay; type: functional, cell-based; conditions: HT-29, 72 h
RAW264.7 [3] = experiment: Anti-inflammatory activity in mouse RAW264.7 cells assessed as inhibition of LPS-induced prostaglandin E2 production at 10 uM incubated for 48 hrs by ELISA method; type: functional; conditions: RAW264.7, 48 h
RAW264.7 [4] = experiment: Anti-inflammatory activity in mouse RAW264.7 cells assessed as inhibition of LPS-induced thromboxane B2 production at 10 uM incubated for 48 hrs by ELISA method; type: functional; conditions: RAW264.7, 48 h

Row | Structure (SMILES) | IC50 (MCF7) | IC50 (RAW264.7 [1]) | IC50 (RAW264.7 [2]) | IC50 (HT-29) | inhibition at 10 µM (RAW264.7 [3]) | inhibition at 10 µM (RAW264.7 [4])
1 | C=C1C(=O)O[C@@H]2C[C@H](C)[C@]3(O)[C@@H](C[C@H]12)[C@](C)(OC(C)=O)C[C@@H]3O | 27.2 µM | 10.5 µM | 34.6 µM | 29.3 µM |  | 
2 | C[C@]12CCC(=O)C=C1CC[C@@H]1[C@@H]2[C@@H](O)C[C@@]2(C)[C@H]1CC[C@]2(O)C(=O)CO [HYDROCORTISONE] |  |  |  |  | 21% | 42%
3 | C=C1C(=O)O[C@@H]2C[C@](C)(O)C3=CC[C@@](C)(O)[C@@H]3C[C@H]12 |  | 21.2 µM | 37.5 µM |  |  | 
4 | C=C1C(=O)O[C@@H]2C[C@H](C)C3=CC[C@@](C)(O)[C@@H]3C[C@H]12 | 24.2 µM | 6.5 µM | 17.7 µM | 28.2 µM |  | 
5 | C=C(CO)[C@@H]1CCC(C)=C([C@H](C)CCC(=O)O)C1 | > 79 µM | > 79 µM | > 79 µM | > 79 µM |  | 
6 | C=C1C(=O)O[C@@H]2C[C@H](C)[C@]34O[C@](C)(C[C@@H]3OC(C)=O)[C@@H]4C[C@H]12 | > 65 µM | 16.3 µM | 38.6 µM | > 65 µM |  | 
7 | C=C1C(=O)O[C@@H]2C[C@H](C)C(CCC(C)=O)=CC[C@H]12 [TOMENTOSIN] | 26.6 µM | 7.3 µM | 15.7 µM | 56.5 µM |  | 

More lines, main results first:

Row | IC50 (MCF7) | IC50 (RAW264.7 [1]) | IC50 (RAW264.7 [2]) | IC50 (HT-29) | Structure (SMILES) | inhibition at 10 µM (RAW264.7 [3]) | inhibition at 10 µM (RAW264.7 [4])
8 | 6.9 µM | 0.7 µM | 6.5 µM | 14.1 µM | C=C1C(=O)O[C@@H]2C[C@H](C)[C@]34O[C@H]3C[C@@](C)(OC(C)=O)[C@@H]4C[C@H]12 |  | 
9 | 8 µM | 3.5 µM | 2.6 µM | 4.8 µM | C=C1C(=O)O[C@@H]2CC(C)=C3CC[C@@](C)(OC(C)=O)[C@@H]3C[C@H]12 |  | 
10 | 13.7 µM | 3.2 µM | 12.9 µM | 18.1 µM | C=C1C(=O)O[C@@H]2CC(C)=C3CC[C@@](C)(O)[C@@H]3C[C@H]12 |  | 
11 | 12.1 µM | 3 µM | 11.7 µM | 18.6 µM | C=C1C(=O)O[C@@H]2C[C@H](C)[C@]34O[C@H]3C[C@@](C)(O)[C@@H]4C[C@H]12 |  | 
